Data published in patent publication US10441663B2, “Methods for treating cancer” (Bicycle Therapeutics Limited, priority 2016, dated 2019).
*1 amine or outer side, *2 acyl side, *3 side chain or, on linkers, in order; H or OH if unused. Where a SMILES comes first, the peptide text is derived from it. Bridges are numbered along the chain shown (N, C = ends). [ ]: non-standard residue; d: D form. The star is where a group is joined. X1 = COc1cc2cc(c1Cl)N(C)C(=O)C[C@H](OC(=O)[C@H](C)N(C)C(=O)CCSSC(C)CCC(=O)*)[C@]1(C)O[C@H]1[C@H](C)[C@@H]1C[C@@](O)(NC(=O)O1)[C@H](OC)/C=C/C=C(\C)C2; 1Nal = N[C@@H](Cc1cccc2ccccc12)C(=O)O; TBMB = c1c(C[*:1])cc(C[*:3])cc1C[*:2]; Tle = CC(C)(C)[C@H](N)C(=O)O; βAla = NCCC(=O)O; Sar = CNCC(=O)O

System: NCI-H1975 xenograft
Assay: In vivo efficacy of BT1718 in NCI-H1975 xenograft
Set-up: species or system Mus Musculus; key to Best response at 10 mg/kg: CR complete response; PR partial response
Experimental: The objective of this study was to evaluate the in vivo anti-tumor efficacy of BT1718in treatment of HT1080, NCI-H292, NCI-H1975, MDA-MB-231, HCC1806, RPMI2650, HCT-15, HT-29 and SNU-16 xenograft in BALB/c nude mice.
The HT1080, NCI-H292, NCI-H1975, MDA-MB-231, HCC1806, RPMI2650, HCT-15, HT-29 and SNU-16 tumor cells were maintained in vitro as a monolayer culture in medium supplemented with 10% heat inactivated fetal bovine serum at 37° C. in an […]. The tumor cells will be routinely subcultured twice weekly by trypsin-EDTA treatment. The cells growing in an exponential growth phase will be harvested and counted for tumor inoculation.
Mouse was inoculated subcutaneously at the right flank with tumor cells for tumor development. The animals were randomized and treatment was started when the average tumor reaches certain volume for the efficacy study, the inoculating cell amounts and starting tumor size were shown as below in Table 9. The test article administration and the animal numbers in each group were shown in the experimental design in Table 10.
All the procedures related to animal handling, care and the treatment in the study were performed according to the guidelines of the Association for Assessment and Accreditation of Laboratory Animal Care (AAALAC). At the time of routine monitoring, the animals were daily checked for any effects of tumor growth and treatments on normal behavior such as mobility, food and water consumption (by looking only), body weight gain/loss (body weights were measured every day), eye/hair matting and any other abnormal effect as stated in the protocol. Death and observed clinical signs were recorded on the basis of the numbers of animals within each subset.
The major endpoint was to see if the tumor growth could be delayed or mice could be cured. Tumor size was measured three times weekly in two dimensions using a caliper, and the volume was expressed in mm^3 using the formula: V=0.5 a×b^2 where a and b are the long and short diameters of the tumor, respectively. The tumor size was then used for calculations of T/C value. The T/C value (in percent) is an indication of antitumor effectiveness; T and C are the mean volumes of the treated and control groups, respectively, on a given day.
TGI was calculated for each group using the formula: TGI (%)=[1−(Ti−T0)/(Vi−V0)]×100; Ti is the average tumor volume of a treatment group on a given day, T0 is the average tumor volume of the treatment group on the day of treatment start, Vi is the average tumor volume of the vehicle control group on the same day with Ti, and V0 is the average tumor volume of the vehicle group on the day of treatment start.
Summary statistics, including mean and the standard error of the mean (SEM), are provided for the tumor volume of each group at each time point.
Statistical analysis of difference in tumor volume among the groups was conducted on the data obtained at the best therapeutic time point after the final dose.
A one-way ANOVA was performed to compare tumor volume among groups, and when a significant F-statistics (a ratio of treatment variance to the error variance) was obtained, comparisons between groups were carried out with Games-Howell test. All data were analyzed using Prism. P<0.05 was considered to be statistically significant.

Q: Which results are given for COc1cc2cc(c1Cl)N(C)C(=O)C[C@H](OC(=O)[C@H](C)N(C)C(=O)CCSSC(C)CCC(=O)NCCC(=O)N(C)CC(=O)N(C)CC(=O)N(C)CC(=O)N(C)CC(=O)N(C)CC(=O)N(C)CC(=O)N(C)CC(=O)N(C)CC(=O)N(C)CC(=O)N(C)CC(=O)N[C@@H](C)C(=O)N[C@H]1CSCc3cc4cc(c3)CSC[C@H](NC(=O)[C@@H](C)NC(=O)[C@H](Cc3cccc5ccccc35)NC(=O)[C@H](CCC(=O)O)NC(=O)[C@H](CC(N)=O)NC(=O)[C@@H](C)NC1=O)C(=O)N[C@@H](CCC(=O)O)C(=O)N[C@@H](CC(=O)O)C(=O)N[C@@H](Cc1ccccc1)C(=O)N[C@@H](Cc1ccc(O)cc1)C(=O)N[C@@H](CC(=O)O)C(=O)N[C@@H](C(C)(C)C)C(=O)N[C@H](C(N)=O)CSC4)[C@]1(C)O[C@H]1[C@H](C)[C@@H]1C[C@@](O)(NC(=O)O1)[C@H](OC)/C=C/C=C(\C)C2 (stereo partly shown) [BT1718] ({X1-βAla}-[Sar][Sar][Sar][Sar][Sar][Sar][Sar][Sar][Sar][Sar]AC[dA]NE[1Nal][dA]CEDFYD[Tle]C-NH2; linker 12-18-25 via TBMB (inferred))?
A: Body Weight (1 mpk biw, day 0): 23.9 ± 0.7 g; Tumor Volume (1 mpk biw, day 0): 170 ± 9 mm^3; Body Weight (1 mpk biw, day 2): 23.5 ± 0.7 g; Tumor Volume (1 mpk biw, day 2): 224 ± 33 mm^3; Body Weight (1 mpk biw, day 4): 24.0 ± 0.9 g; Tumor Volume (1 mpk biw, day 4): 352 ± 69 mm^3; Body Weight (1 mpk biw, day 7): 24.4 ± 0.7 g; Tumor Volume (1 mpk biw, day 7): 587 ± 134 mm^3; Body Weight (1 mpk biw, day 9): 24.6 ± 0.8 g; Tumor Volume (1 mpk biw, day 9): 840 ± 155 mm^3; Body Weight (1 mpk biw, day 11): 25.2 ± 1.1 g; Tumor Volume (1 mpk biw, day 11): 1265 ± 144 mm^3; Body Weight (1 mpk biw, day 14): 26.0 ± 1.0 g; Tumor Volume (1 mpk biw, day 14): 1455 ± 130 mm^3; Body Weight (3 mpk biw, day 0): 23.6 ± 0.4 g; Tumor Volume (3 mpk biw, day 0): 166 ± 13 mm^3; Body Weight (3 mpk biw, day 2): 23.6 ± 0.5 g; Tumor Volume (3 mpk biw, day 2): 241 ± 20 mm^3; Body Weight (3 mpk biw, day 4): 24.0 ± 0.8 g; Tumor Volume (3 mpk biw, day 4): 377 ± 38 mm^3; Body Weight (3 mpk biw, day 7): 24.8 ± 0.8 g; Tumor Volume (3 mpk biw, day 7): 605 ± 84 mm^3; Body Weight (3 mpk biw, day 9): 24.4 ± 0.9 g; Tumor Volume (3 mpk biw, day 9): 732 ± 95 mm^3; Body Weight (3 mpk biw, day 11): 25.1 ± 0.8 g; Tumor Volume (3 mpk biw, day 11): 1095 ± 207 mm^3; Body Weight (3 mpk biw, day 14): 25.0 ± 0.7 g; Tumor Volume (3 mpk biw, day 14): 1343 ± 349 mm^3; Body Weight (10 mpk biw, day 0): 23.3 ± 1.4 g; Tumor Volume (10 mpk biw, day 0): 168 ± 6 mm^3; Body Weight (10 mpk biw, day 2): 22.5 ± 1.7 g; Tumor Volume (10 mpk biw, day 2): 209 ± 31 mm^3; Body Weight (10 mpk biw, day 4): 22.4 ± 1.7 g; Tumor Volume (10 mpk biw, day 4): 269 ± 23 mm^3; Body Weight (10 mpk biw, day 7): 22.6 ± 1.9 g; Tumor Volume (10 mpk biw, day 7): 419 ± 22 mm^3; Body Weight (10 mpk biw, day 9): 22.4 ± 1.8 g; Tumor Volume (10 mpk biw, day 9): 442 ± 23 mm^3; Body Weight (10 mpk biw, day 11): 22.3 ± 1.9 g; Tumor Volume (10 mpk biw, day 11): 442 ± 26 mm^3; Body Weight (10 mpk biw, day 14): 22.7 ± 2.0 g; Tumor Volume (10 mpk biw, day 14): 421 ± 31 mm^3; Best response at 10 mg/kg (NCI-H1975, 10 mg/kg): CR; TGI (NCI-H1975, 1 mpk, biw, day 14): 3.0%; Tumor Volume (NCI-H1975, 1 mpk, biw, day 14): 1455 ± 130 mm^3; TGI (NCI-H1975, 3 mpk, biw, day 14): 11.2%; Tumor Volume (NCI-H1975, 3 mpk, biw, day 14): 1343 ± 349 mm^3; TGI (NCI-H1975, 10 mpk, biw, day 14): 80.9%; Tumor Volume (NCI-H1975, 10 mpk, biw, day 14): 421 ± 31 mm^3; Minimally Effective Dose IV BIW (NCI-H1975, dose leading to tumor-stasis): <10 mg/kg; tumor volume after regression (after 4 weeks 10 mg/kg biw): below 50 mm3; body weight effect (at PG-D40): marked body weight lost
